Source: patent publication US9345655B2, “Oral care compositions” (BRIGHAM YOUNG UNIVERSITY, priority 2011, dated 2016)

What was measured:
TNF-a = test: Anti-inflammatory activity, cytokine generation in HKPG-stimulated U937 macrophages; type: cell-based, Human; settings: 0.1 ppm; U937 macrophages stimulated with heat killed P. gingivalis
Source text: (§1) The anti-inflammatory activity of a compound of Formula (II) is studied against six human inflammatory cytokines, PGE2, IL-1B, IL-6, IL-8, TNF-a, and GM-CSF in separate sets of experiments; first against PGE2, then against the five other cytokines Human monocyte U937 cells are differentiated to macrophages and then generation of cytokines is induced by stimulating the cells using heat killed P. gingivalis (HKPG, 1×10^8 cells). Different types of inflammatory cytokines are generated by U973 cells and released into the supernatant.

IL-1B = test: as above; type: cell-based, Human; settings: 0.1 ppm; U937 macrophages stimulated with heat killed P. gingivalis
Source text: as §1

IL-6 = test: as above; type: cell-based, Human; settings: 0.1 ppm; U937 macrophages stimulated with heat killed P. gingivalis
Source text: as §1

bacterial culture = test: Minimum inhibitory concentration (MIC), serial 2-fold dilution in 96-well plate; type: cell-based; settings: overnight incubation in TSB, inoculum 0.2 OD
Method: To evaluate minimum inhibitory concentrations (MICs), the concentration of the twenty four hour culture in log phase is adjusted by diluting in tryptic soy broth (TSB) so that an optical density of 0.2 at 610nm is obtained. The bacterial culture is then ready to be used for testing.
Three solutions are prepared: (1) 1% CPC solution in ethanol; (2) 1% solution of the Compound of Formula (II) in water; and (3) 0.5% of a Compound of Formula (II) +0.5% CPC. The solutions are diluted 1:9 in TSB. They are added to a 96-well plate and a serial dilution (2-fold) is made across the plate. The bacterial inoculum at 0.2 OD, 1000, is added to every well. The plate is incubated overnight and read on a plate reader the following day.

Structure (SMILES): CCCCCCCCNCCC[C@@H](C)[C@H]1CC[C@H]2C3[C@H](OCCCN)CC4C[C@H](OCCCN)CC[C@]4(C)[C@H]3C[C@H](OCCCN)[C@]12C (stereo partly shown) [Compound of Formula (II)]
- reduction of TNF-a (TNF-a): 80%
- reduction of IL-10 (so in the source) (IL-1B): 21%
- reduction of IL-6 (IL-6): 60%
- MIC (bacterial culture): 0.49 µg/mL
